Assay results: US20260242330A1, “USE OF AN AMANTADINE MONONITRATE COMPOUND IN MANUFACTURE OF A MEDICAMENT FOR THE PREVENTION AND TREATMENT OF HYPERTENSION” (GUANGZHOU MAGPIE PHARMACEUTICALS CO., LTD., priority 2022, published 2026)

Experiments:
[1] = Pharmacokinetic test of MN-08 in clinical trial, single oral dose; type: in vivo, human
Method: In the clinical trial of amantadine mononitrate compound MN-08, the pharmacokinetic test included a total of 8 dose groups (6 mg, 12 mg, 42 mg, 60 mg, 78 mg, 96 mg, 114 mg, and 132 mg).
The subjects received a single oral dose of MN-08 at doses of 6 mg, 12 mg, 42 mg, 60 mg, 78 mg, 96 mg, 114 mg, and 132 mg, respectively. […] Most existing antihypertensive drugs have a short half-life and require frequent administration, resulting in poor patient compliance. In contrast, the amantadine mononitrate compound MN-08 of the present invention has a half-life of more than 20 hours, a long drug action time, and can reduce the number of administration times and improve patient compliance compared to other existing hypertensive drugs.

[2] = test system: blood pressure of subjects; assay: Effect of multiple administrations of MN-08 on blood pressure of subjects (7 days); type: in vivo, human; conditions: for DP / SP: Subject 14; for DP: baseline 84 mmHg; for SP: baseline 122 mmHg
Description: All subjects in the following embodiments have signed informed consent forms, which comply with medical ethics regulations. According to the relevant provisions of Chinese Guidelines for the Prevention and Treatment of Hypertension (2018 Revision), the values measured for hypertension are the average blood pressure measured three times on a different day without the use of antihypertensive drugs. Therefore, in this embodiment, the baseline blood pressure of the subjects before administration is set as the average blood pressure measured at three different times: screening period, occupancy period, and 1 hour before administration, as shown in Tables 1 to 3.
Multiple dosing trials: Participants in each dose group fasted for at least 10 hours before administration, without water deprivation overnight. Each group of subjects received oral administration of the test drug on an empty stomach from day 1 to day 6, twice a day (with an interval of 12 hours and at least 1 hour on an empty stomach before the second administration), and only once in the morning on day 7. A total of 13 doses were administered. The first administration time every day is around 8 am, taken with 240 mL of water. Taking subject 14 as an example, the effect of multiple doses of MN-08 (7 days) on subject blood pressure was investigated.

[3] = 12 mg twice a day, D 1, 2 hrs after 2nd adm.
[4] = 12 mg twice a day, D 1, 4 hrs after 1st adm.
[5] = 12 mg twice a day, D 1, 8 hrs after 1st adm.
[6] = 12 mg twice a day, D 2, 2 hrs after 2nd adm.
[7] = 12 mg twice a day, D 2, 4 hrs after 1st adm.
[8] = 12 mg twice a day, D 2, 8 hrs after 1st adm.
[9] = 12 mg twice a day, D 3, 2 hrs after 2nd adm.
[10] = 12 mg twice a day, D 3, 4 hrs after 1st adm.
[11] = 12 mg twice a day, D 3, 8 hrs after 1st adm.
[12] = 12 mg twice a day, D 4, 2 hrs after 2nd adm.
[13] = 12 mg twice a day, D 4, 4 hrs after 1st adm.
[14] = 12 mg twice a day, D 4, 8 hrs after 1st adm.
[15] = 12 mg twice a day, D 5, 2 hrs after 2nd adm.
[16] = 12 mg twice a day, D 5, 4 hrs after 1st adm.
[17] = 12 mg twice a day, D 5, 8 hrs after 1st adm.
[18] = 12 mg twice a day, D 6, 2 hrs after 2nd adm.
[19] = 12 mg twice a day, D 6, 4 hrs after 1st adm.
[20] = 12 mg twice a day, D 6, 8 hrs after 1st adm.
[21] = 12 mg, once on D 7 after 6 days twice a day, D 7, 4 hrs after adm.
[22] = 12 mg, once on D 7 after 6 days twice a day, D 7, 8 hrs after adm.
[23] = 12 mg, once on D 7 after 6 days twice a day, D 7, 12 hrs after adm.

For `CCC12CC3CC(N)(C1)CC(CO[N+](=O)[O-])(C3)C2` (stereo not drawn) [MN-08], the half-life ([1]; human, in vivo, po, single oral administration, dose range 6 mg to 132 mg, t1/2 extends with increasing dosage) was 20 to 30 h, the “time at which peak concentration was reached” value ([1]; single oral dose, 6 mg to 132 mg groups) was 2.5 to 6.5 h and the DP [2, 3] was 73 mmHg. The SP [2, 3] was 113 mmHg, the DP [2, 4] was 81 mmHg and the SP [2, 4] was 122 mmHg. For the same compound, the DP [2, 5] was 74 mmHg, the SP [2, 5] was 114 mmHg and the DP [2, 6] was 77 mmHg. The SP [2, 6] was 107 mmHg, the DP [2, 7] was 76 mmHg and the SP [2, 7] was 115 mmHg. The DP [2, 8] was 68 mmHg, the SP [2, 8] was 117 mmHg and the DP [2, 9] was 73 mmHg. For the same compound, the SP [2, 9] was 109 mmHg, the DP [2, 10] was 74 mmHg and the SP [2, 10] was 114 mmHg. The DP [2, 11] was 82 mmHg, the SP [2, 11] was 111 mmHg and the DP [2, 12] was 73 mmHg. For the same compound, the SP [2, 12] was 109 mmHg, the DP [2, 13] was 73 mmHg and the SP [2, 13] was 109 mmHg. It also gave a DP [2, 14] of 70 mmHg, an SP [2, 14] of 107 mmHg and a DP [2, 15] of 74 mmHg. It also gave an SP [2, 15] of 114 mmHg, a DP [2, 16] of 69 mmHg and an SP [2, 16] of 106 mmHg. It also gave a DP [2, 17] of 62 mmHg, an SP [2, 17] of 97 mmHg and a DP [2, 18] of 77 mmHg. For the same compound, the SP [2, 18] was 125 mmHg, the DP [2, 19] was 77 mmHg and the SP [2, 19] was 118 mmHg. For the same compound, the DP [2, 20] was 63 mmHg, the SP [2, 20] was 112 mmHg and the DP [2, 21] was 77 mmHg. It also gave an SP [2, 21] of 108 mmHg, a DP [2, 22] of 62 mmHg and an SP [2, 22] of 102 mmHg. For the same compound, the DP [2, 23] was 62 mmHg, the SP [2, 23] was 103 mmHg and the “both systolic and diastolic pressure of the subjects” value ([2]; twice a day for 7 days, decrease in diastolic greater than in systolic pressure) was “reduced”.
